Data published in US20230014430A1, “Methods and Compositions for Generating Functionally Mature Beta Cells and Uses Thereof” (Washington University, priority 2019, published 2023).

B1: TGFβ2: TGFβ agonist (growth factor) (protein, UniProt P61812 303-414, looked up)
Transforming growth factor …: ALDAAYCFRNVQDNCCLRPLYIDFKRDLGWKWIHEPKGYNANFCAGACPYLWSSDTQHSRVLSLYNTINPEASASPCCVSQDLEPLTILYYIGKTPKIEQLSNMIVKSCKCS

Tests used:
Assay type in all cases: cell-based, human
[1] = system: SIX2 gene expression; assay: SC-β cells treated with a library of compounds to identify SIX2 regulators; details: FIG. 11
Procedure: FIG. 11. Regulators of SIX2. SC-β cells were treated with a library of compound to identify SIX2 regulators. […] (B) Negative Regulators of SIX2 gene expression. (C) Flow cytometry of SC-β cells treated with SIX2 regulators.
Here, regulators of SIX2 gene expression were discovered (see e.g., FIG. 11). It was discovered that (1) regulators of SIX2 affect the % of SC-β cells generated (see e.g., FIG. 12); (2) SIX2 regulators influence SC-β cell function (see e.g., FIG. 13); (3) SIX2 is expressed by only a fraction of C-peptide positive cells (SC-β cells) (see e.g., FIG. 12A, FIG. 2B); and (4) SIX2+ cells secrete insulin in response to glucose when single cell dispersed and plated down (see e.g., FIG. 14).

[2] = system: SC-β cells; assay: Static glucose-stimulated insulin secretion of stage 6 cells; details: HUES8 hESC and 1013-4FA hiPSC lines, vs sh-ctrl
Procedure: (§1) Gene KD was performed similar to as previously described (Velazco-Cruz et al., 2019). pLKO.1 TRC plasmids containing shRNA sequences targeting GFP (sh-ctrl) and human SIX2 (sh-SIX2-1 and sh-SIX2-2) were received from the RNAi Core at the Washington University. sh-ctrl, […] (SEQ ID NO: 35); sh-SIX2-1, […] (SEQ ID NO: 36); sh-SIX2-2, […] (SEQ ID NO: 37). Viral particles were generated using Lenti-X 293T cells (Takara; 632180) cultured in DMEM (MilliporeSigma; D6429) with 10% heat inactivated fetal bovine serum (MilliporeSigma; F4135). Confluent Lenti-X 293T cells were transfected with […] of shRNA plasmid, […] of psPAX2 (Addgene; 12260), and 1.5 μg pMD2.G (Addgene; 12259) packaging plasmids in 600 μL of Opti-MEM (Life Technologies; 31985-070) and 48 μL of Polyethylenimine ‘Max’ MW 40,000 Da (Polysciences; 24765-2). 16 hours post transfection media was switched. Viral containing supernatant was collected at 96 hours post transfection and concentrated using Lenti-X concentrator (Takara; 631232). Collected lentivirus was tittered using Lenti-X qRT-PCR Titration Kit (Takara; 631235). […]
Measurements were performed as previously described (Velazco-Cruz et al., 2019). […] Insulin was quantified with a human insulin ELISA (ALPCO; 80-INSHU-E10.1). Cell quantification was performed by dispersing with trypLE and counting with the Vi-Cell XR.

[3] = system: SC-β cells; assay: Dynamic glucose-stimulated insulin secretion of stage 6 cells (perifusion); details: HUES8 hESC and 1013-4FA hiPSC lines, vs sh-ctrl
Procedure: as §1
Measurements were performed as previously described (Velazco-Cruz et al., 2019). […] Insulin was quantified with a human insulin ELISA (ALPCO; 80-INSHU-E10.1). DNA quantification was performed by lysing the cells and measuring with the Quant-iT Picogreen dsDNA assay kit (Invitrogen; P7589). […]

Row | Molecule | regulation of SIX2 expression in SC-β cells [1] | static glucose-stimulated insulin secretion [2] | dynamic glucose-stimulated insulin secretion [3]
1 | Cc1c[nH]c(-c2cnc(NCCNc3ccc(C#N)cn3)nc2-c2ccc(Cl)cc2Cl)n1 [CHIR99021] | positive regulator |  | 
2 | AZD4547 | positive regulators |  | 
3 | Nc1ncn([C@@H]2O[C@H](CO)[C@@H](O)[C@H]2O)c(=O)n1 [5-Azacytidine] | positive regulator |  | 
4 | TGFβ1: TGFβ agonist (growth factor) | positive regulators |  | 
5 | Cc1ccc(-n2nc(C(C)(C)C)cc2NC(=O)Nc2ccc(OCCN3CCOCC3)c3ccccc23)cc1 [doramapimod] | positive regulators |  | 
6 | sh-SIX2-1: lentiviral pLKO.1 TRC shRNA targeting human SIX2, CAACGAGAACTCCAATTCTAA (SEQ ID NO: 36) |  | significant reductions | significant reductions
7 | Nc1nccc2c1ncn2[C@@H]1C=C(CO)[C@@H](O)[C@H]1O [3-Deazaneplanocin A] | positive regulator |  | 
8 | sh-SIX2-2: lentiviral pLKO.1 TRC shRNA targeting human SIX2, GAGCACCTTCACAAGAATGAA (SEQ ID NO: 37) |  | significant reductions | significant reductions
9 | B1 | positive regulators |  | 
